In paper PMC4750701, “Role of Mitochondrial RNA Polymerase in the Toxicity of Nucleotide Inhibitors of Hepatitis C Virus” (Antimicrobial Agents and Chemotherapy, 2016):

Assays:
[1] = Cytotoxicity in primary human hepatocytes, 5 days; settings: human, primary human hepatocytes
Experimental: (§3) Primary human hepatocytes were from Bioreclamation IVT (Westbury, NY) or Life Technologies (Carlsbad, CA).
(§4) All cells were cultured at 37°C in a 5% CO2 incubator with 90% humidity unless noted otherwise. […] All cells were treated with the various compounds for 5 days, except for human erythroid and myeloid progenitors, which were treated for 14 days. After the incubation period, cell viability was measured by the addition of CellTiter Glo viability reagents (Promega, Madison, WI). The luminescence signal was quantified on an Envision luminescence plate reader (PerkinElmer, Waltham, MA) after incubation of the reagents and cells for 10 min at room temperature. […] CC50 values were calculated as the average of the results of three or four independent experiments.

recombinant human PolRMT [2] = target: T1, recombinant human PolRMT (Homo sapiens, UniProt O00411); experiment: Inhibition of PolRMT-catalyzed RNA synthesis; format: biochemical; settings: triphosphate form of the compound tested (Table 4); read-out: Mean IC50 ± SD for PolRMT
T1 construct: purchased Enzymax (Lexington, KY)
Source text: Activated fish sperm DNA was purchased from USB/Affymetrix (Santa Clara, CA) and used as a template for the DNA polymerases alpha, beta, and gamma. […] The RNA and DNA oligonucleotides used in the mitochondrial RNA polymerase assay (see Table S1 in the supplemental material) were synthesized and PAGE purified by Thermo Scientific/Dharmacon (Lafayette, CO). RNA primer R12 was 5′-^32P-phosphorylated with [γ-^32P]ATP (3,000 Ci/mmol) and T4 kinase (New England BioLabs, Ipswich, MA).
(§1) Human DNA polymerase alpha, isolated from HeLa cell extracts, was from CHIMERx (Madison, WI). Recombinant human DNA polymerase beta, expressed in E. coli, was a gift from Zucai Suo at The Ohio State University. Recombinant human DNA polymerase gamma (including both the large subunit and the small subunit) was cloned, expressed, and purified from insect cells by Gilead Sciences (Foster City, CA) ([13]). RNA PolII was purchased as part of the HeLaScribe nuclear extract in vitro transcription system kit from Promega (Madison, WI). The recombinant human PolRMT and the transcription factors mitochondrial transcription factor A (mtTFA) and B2 (mtTFB2) were purchased from Enzymax (Lexington, KY). FLAG epitope-tagged RNA PolI and PolIII complexes were isolated from rat NSN1 cells and HeLa cells, respectively ([17], [18]). The inhibition of DNA polymerases alpha, beta, and gamma, PolRMT, and PolII and the rate of single-nucleotide incorporation by PolRMT have been described previously in detail ([12], [13], [19]). Inhibition of RNA PolI and PolIII was studied using published methods ([20], [21]). All concentrations were final unless noted otherwise. […] After incubation at 30°C for 20 min to 1 h, the reactions were terminated by pipetting the mixtures onto DEAE-cellulose discs (DE81; Whatman), and the products analyzed as described previously ([20], [21]).

[3] = Cytotoxicity in quiescent PBMCs, 5 days; settings: human, quiescent PBMCs
Experimental: (§5) Human peripheral blood mononuclear cells (PBMCs) were isolated from human buffy coats obtained from healthy volunteers (Stanford Blood Bank, Palo Alto, CA) using standard Ficoll separation and stimulated as described elsewhere ([13]) and were tested at both quiescent and stimulated stages. Quiescent PBMCs were stimulated with 10 units per ml of recombinant human interleukin 2 (hIL-2) and 1 μg per ml phytohemagglutinin P (PHA-P) for 48 h prior to drug treatment.
as §4
(§6) Human peripheral blood mononuclear cells (PBMCs) were isolated from human buffy coats
(§7) obtained from normal healthy volunteers (Stanford Medical School Blood Center, Palo Alto,
(§8) CA). Total PBMCs were isolated from buffy coats using standard Ficoll separation and sterile
(§9) cellular isolation techniques performed in a bio-safety cabinet (1). Except where noted, the
(§10) procedure was carried out at room temperature. The final PBMCs pellet was resuspended in
(§11) Logan, UT), penicillin 100 units/mL and streptomycin 100 µg/mL (Gibco). For quiescent
(§12) PBMCs cultures, total cells were seeded in 96-well plates at a density of 1 x 10^6 cells per well, followed by immediate drug treatment. Stimulated PBMCs cultures were set up by seeding the freshly isolated PBMCs in T-175cm2 tissue culture flasks in 100 mL of RPMI containing the same components as the ones used for the quiescent PBMCs but with the addition of 10 units per mL of recombinant human interleukin-2 (hIL-2, Roche, Indianapolis, IN), and 1 µg per mL phytohemagglutinin-P (PHA-P, Sigma-Aldrich, St. Louis, MO) at density of 2  10^6 cells per mL for 48 hours at 37C in a 5% CO2 incubator with 90% humidity, prior to drug treatment.

[4] = target: T2, Recombinant human DNA polymerase beta (Homo sapiens, UniProt P06746); experiment: Inhibition of human DNA polymerase beta; format: biochemical; settings: triphosphate form of the compound tested; read-out: Mean IC50 ± SD for DNA Pol β
T2 construct: host or cells: E. coli
Source text: (§2) Activated fish sperm DNA was purchased from USB/Affymetrix (Santa Clara, CA) and used as a template for the DNA polymerases alpha, beta, and gamma. The DNA template used in the RNA Pol II assay was a 1,188-bp restriction fragment containing the cytomegalovirus (CMV) immediate early promoter (Promega, Madison, WI). The RNA and DNA oligonucleotides used in the mitochondrial RNA polymerase assay (see Table S1 in the supplemental material) were synthesized and PAGE purified by Thermo Scientific/Dharmacon (Lafayette, CO). RNA primer R12 was 5′-^32P-phosphorylated with [γ-^32P]ATP (3,000 Ci/mmol) and T4 kinase (New England BioLabs, Ipswich, MA).
as §1, with “otherwise. For the RNA PolI inhibition assay, a reaction mixture containing 50 mM HEPES (pH 7.9), 20% glycerol, 100 mM KCl, 1 mM dithiothreitol (DTT), 50 μg/ml calf thymus DNA, 4 mM MgCl2, 5 or 80 μM UTP (0.25 μl of [5,6-^3H]UTP, >25 Ci/mmol; PerkinElmer), 1 mM noncompeting NTP, competing NTP (5 μM for GTP, CTP, and UTP and 25 μM for ATP), and various concentrations (0 to 500 μM) of NTP analogs was preincubated at 30°C for 5 min.” for “otherwise.”

[5] = Cytotoxicity in stimulated PBMCs, 5 days; settings: human, stimulated PBMCs
Experimental: as §5, §4, §6, §7, §8, §9, §10, §11, §12

[6] = test system: mitochondrial DNA-encoded cytochrome c oxidase (COX-1; complex IV) protein level; experiment: Mitochondrial protein synthesis assay (COX-1, MitoBiogenesis in-cell ELISA) in PC-3 cells; format: cell-based, human; settings: human; PC-3 cells, COX-1, 5 days; read-out: Mean CC50 ± SD causing Mitochondrial toxicity: Protein synthesis
In short: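 PC-3 cells were exposed to compound for 5 days. Protein levels of nuclear-encoded SDH-A and mitochondrial-encoded COX-1 were then quantified by in-cell ELISA (quantitative immunocytochemistry).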

[7] = Cytotoxicity in MT-4 T-cells, 5-day treatment; settings: human, MT-4 cells
Experimental: as §3, §4

recombinant human PolRMT [8] = target: T1, recombinant human PolRMT; experiment: Single-nucleotide incorporation by PolRMT; format: biochemical; settings: triphosphate form, fixed saturating concentration 500 μM, rate relative to corresponding natural rNTP
Source text: as §2
as §1, with “otherwise. For the RNA PolI inhibition assay, a reaction mixture containing 50 mM HEPES (pH 7.9), 20% glycerol, 100 mM KCl, 1 mM dithiothreitol (DTT), 50 μg/ml calf thymus DNA, 4 mM MgCl2, 5 or 80 μM UTP (0.25 μl of [5,6-^3H]UTP, >25 Ci/mmol; PerkinElmer), 1 mM noncompeting NTP, competing NTP (5 μM for GTP, CTP, and UTP and 25 μM for ATP), and various concentrations (0 to 500 μM) of NTP analogs was preincubated at 30°C for 5 min.” for “otherwise.”
Supplementary Table S1: RNA primer and templates used in mitochondrial RNA
polymerase single nucleotide incorporation assay.
Oligonucleotides Sequencesa
Primer (R12) 5’-[…]-3’
Templates (D18) 3’-[…]-5’
a The bold letter in the template sequences denotes the bases that pair with the incoming NTP. […]

[9] = test system: mitochondrial spare respiratory capacity; experiment: Oxygen consumption rate / spare respiratory capacity in PC-3 cells; settings: human, pH 7.4
Experimental: Mitochondrial respiration was monitored by measuring the rate of oxygen consumption (OCR) of PC-3 cells after 3-day treatments with the compounds, using a Seahorse extracellular flux analyzer (XF^e-96) based on published protocols ([22][–][24]). The optimal cell seeding was determined by measuring the basal OCR of PC-3 cells that were seeded at different densities of 2.5 × 10^3, 5 × 10^3, 7.5 × 10^3, and 10 × 10^3 cells/well in XF 96-well plates (Seahorse Bioscience, North Billerica, MA) and incubated with 0.5% dimethyl sulfoxide (DMSO) for 3 days. […] Each reagent in the Mito Stress test kit (Seahorse Biosciences), i.e., ATP synthase inhibitor oligomycin, mitochondrial uncoupler carbonyl cyanide-4-(trifluoromethoxy)phenylhydrazone (FCCP), and a fixed-ratio mixture of the mitochondrial complex I (NADH dehydrogenase) inhibitor rotenone and the complex III (CoQH2-cytochrome c reductase) inhibitor antimycin A, was titrated. The lowest concentration that reached the maximal effect was chosen for each reagent. The OCR signals were normalized by cell numbers using DNA content determined by Hoechst's stain as described below.
PC-3 cells were seeded at a density of 5 × 10^3 cells/well in XF 96-well plates and incubated with the compounds for 3 days. On the day of the assay, the cell medium was replaced with XF assay medium (pH 7.4) containing 10 mM glucose and 1 mM freshly prepared pyruvate. Mitochondrial respiration was monitored by measuring OCR on a Seahorse extracellular flux analyzer (XF^e-96). All concentrations listed are the final concentration after mixing unless noted otherwise. […] Spare respiratory capacity was obtained by subtracting the rate of basal respiration from the rate of maximal respiration.
The cells were lysed by freezing at −80°C for >2 h. […] In parallel, another set of cells was treated with the compounds for 3 days and the ATP levels were measured using CellTiter Glo viability reagents (Promega, Madison, WI).

T1 sequence (O00411 42-1230): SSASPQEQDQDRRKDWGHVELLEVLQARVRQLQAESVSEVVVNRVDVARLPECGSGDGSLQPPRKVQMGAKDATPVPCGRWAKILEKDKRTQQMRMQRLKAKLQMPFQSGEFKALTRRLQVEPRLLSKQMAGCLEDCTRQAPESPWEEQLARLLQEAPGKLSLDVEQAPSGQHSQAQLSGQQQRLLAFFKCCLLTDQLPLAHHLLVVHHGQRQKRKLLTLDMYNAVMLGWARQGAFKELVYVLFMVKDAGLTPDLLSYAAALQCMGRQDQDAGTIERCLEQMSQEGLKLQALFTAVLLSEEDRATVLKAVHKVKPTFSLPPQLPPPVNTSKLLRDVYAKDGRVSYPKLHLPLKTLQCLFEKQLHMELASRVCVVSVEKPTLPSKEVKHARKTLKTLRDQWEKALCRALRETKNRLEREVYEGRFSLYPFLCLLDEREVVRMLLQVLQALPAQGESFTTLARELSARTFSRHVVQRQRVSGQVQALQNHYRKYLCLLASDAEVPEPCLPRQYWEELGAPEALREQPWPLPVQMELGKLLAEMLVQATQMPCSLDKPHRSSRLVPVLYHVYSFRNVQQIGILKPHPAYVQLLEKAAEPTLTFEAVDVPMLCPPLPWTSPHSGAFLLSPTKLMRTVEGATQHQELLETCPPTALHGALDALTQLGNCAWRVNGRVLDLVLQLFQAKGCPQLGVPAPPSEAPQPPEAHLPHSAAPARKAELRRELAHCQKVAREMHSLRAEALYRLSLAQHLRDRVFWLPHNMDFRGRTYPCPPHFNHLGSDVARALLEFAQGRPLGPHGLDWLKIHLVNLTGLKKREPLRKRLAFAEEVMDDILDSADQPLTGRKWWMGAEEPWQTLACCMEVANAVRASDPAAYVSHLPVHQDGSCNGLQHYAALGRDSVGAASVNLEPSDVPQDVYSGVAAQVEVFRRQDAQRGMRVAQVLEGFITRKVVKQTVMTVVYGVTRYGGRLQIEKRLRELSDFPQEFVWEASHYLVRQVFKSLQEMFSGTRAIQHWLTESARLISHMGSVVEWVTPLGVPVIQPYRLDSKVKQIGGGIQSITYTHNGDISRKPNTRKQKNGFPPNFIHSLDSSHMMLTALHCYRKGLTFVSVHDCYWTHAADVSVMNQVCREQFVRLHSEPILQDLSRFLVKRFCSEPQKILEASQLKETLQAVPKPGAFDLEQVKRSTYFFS

Row | Structure (SMILES) | CC50 at 5 days [1] [µM] | IC50 (recombinant human PolRMT [2]) [µM] | CC50 at 5 days [3] [µM] | IC50 [4] [µM] | CC50 at 5 days [5] [µM] | CC50 at 5 days [6] [µM] | CC50 at 5 days [7] [µM] | Substrate incorporation (% of NTP [mean ± SD]) of PolRMT (recombinant human PolRMT [8]) | CC50 [6] [µM] | CC50 at 3 days ([9]; PC-3 cells) [µM] | Substrate incorporation (% of NTP [mean ± SD]) of PolRMT (recombinant human PolRMT [8]; listed as sofosbuvir) | CC50 at 3 days [9] [µM]
1 | CCOc1nc(N)nc2c1ncn2[C@@H]1O[C@@H]2COP(=O)(OC(C)C)O[C@H]2[C@@]1(C)F (stereo partly shown) [PSI-938] | > 100 | > 500 | > 100 | > 200 | > 100 | > 100 | > 100 | 1.6 ± 0.2 % of NTP | – | – | – | –
2 | CC(C)OC(=O)[C@H](C)N[P@](=O)(OC[C@H]1O[C@@](C#N)(c2ccc3c(N)ncnn23)[C@](C)(O)[C@@H]1OC(=O)C(C)C)Oc1ccccc1 [GS-6620] | – | > 500 | – | > 200 | – | – | – | – | 31 ± 5 | – | – | –
3 | C[C@@]1(O)[C@H](O)[C@@H](CO)O[C@H]1n1ccc(N)nc1=O [2′CMeC, 2′-C-methyl (2′CMe) cytidine] | > 100 | 230 ± 90 | > 100 | > 200 | 64 ± 18 | 50 ± 25 | 19 ± 6 | – | – | 100 | – | –
4 | C[C@@]1(O)[C@H](O)[C@@H](COP(=O)(O)OP(=O)(O)OP(=O)(O)O)O[C@H]1n1cnc2c(=O)[nH]c(N)nc21 [2′CMeGTP] | – | – | – | > 200 | – | – | – | 92 ± 33 % of NTP | – | – | – | –
5 | CC(C)OC(=O)[C@H](C)N[P@](=O)(OC[C@H]1O[C@@H](n2ccc(=O)[nH]c2=O)[C@](C)(F)[C@@H]1O)Oc1ccccc1 [Sofosbuvir] | – | > 500 | – | > 200 | – | > 100 | – | 0.45 ± 0.40 % of NTP | – | – | < 1 % of NTP | –
6 | [N-]=[N+]=N[C@]1(CO)O[C@@H](n2ccc(N)nc2=O)[C@H](O)[C@@H]1O [4′-AzidoC, 4′-azido cytidine] | > 100 | 3.8 ± 2 | > 100 | > 200 | > 100 | 11 ± 3 | > 100 | – | – | 4.5 ± 0.3 | – | –
7 | COc1nc(N)nc2c1ncn2[C@@H]1O[C@H](COP(=O)(N[C@@H](C)C(=O)OCC(C)(C)C)Oc2cccc3ccccc23)[C@@H](O)[C@@]1(C)O (stereo partly shown) [BMS-986094] | – | 52 | – | – | – | – | – | rates similar to those of their corresponding natural rNTPs | 0.68 ± 0.1 | – | – | 0.48 ± 0.07
8 | C[C@@]1(F)[C@H](O)[C@@H](CO)O[C@H]1n1ccc(N)nc1=O [PSI-6130] | > 100 | > 500 | > 100 | > 200 | 100 | 70 ± 14 | > 100 | 0.81 ± 0.13 % of NTP | – | – | – | –
